This experiment has as its target T1, AsPC-1 HiBiT-KRASG12D (Homo sapiens, UniProt P01116, G12D).
T1 construct: insert the HiBiT tag onto the N-terminus of one or more of the endogenous KRAS alleles; endogenous in cells; host or cells: AsPC-1 (ATCC CRL-1682), CRISPR-Cas9 knock-in clone, one tagged allele
Kind of experiment: HiBiT degradation assay (G12D), AsPC-1 HiBiT-KRASG12D cells. Format: cell-based. As to conditions: 24 hours treatment; for Dmax: ASPC1, AsPC-1 HiBiT-KRASG12D cells, maximum degradation observed; for DC50: AsPC-1 HiBiT-KRASG12D cells, HiBiT luminescence. The method in brief: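 Luminescence read-out of HiBiT-tagged endogenous KRASG12D in AsPC-1 cells after 24 h compound exposure at 37° C; lytic Nano-Glo HiBiT detection, 45 min at room temperature. A parallel alamar blue read (4 h) checked viability, normalized to DMSO-only controls.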

The structures appear in SMILES notation. Some results are limits rather than exact numbers.

T1 sequence (P01116 1-188 isoform P01116-2 G12D): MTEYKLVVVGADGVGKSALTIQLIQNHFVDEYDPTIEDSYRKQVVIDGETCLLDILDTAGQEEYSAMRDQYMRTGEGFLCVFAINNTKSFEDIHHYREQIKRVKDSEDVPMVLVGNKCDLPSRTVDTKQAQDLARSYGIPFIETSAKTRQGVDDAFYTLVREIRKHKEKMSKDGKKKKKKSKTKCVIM

As a reminder, the Dmax is the greatest extent of degradation seen. The low end stands for shallow degradation, the high end for deep degradation. One may read the DC50 as the midpoint of the concentration-degradation curve. High values mean a less potent degrader, low ones a more potent degrader. In turn, `Cc1ncsc1-c1ccc([C@H](C)NC(=O)[C@@H]2C[C@@H](O)CN2C(=O)[C@@H](c2cc(OCC3CCN(CCOc4nc(N5CC6CCC(C5)N6)c5cnc(-c6cc(O)cc7cccc(C)c67)c(F)c5n4)CC3)no2)C(C)C)cc1` [Compound 60, (2S,4R)-1-[(2R)-2-{3-[(1-{2-[(4-{3,8-diazabicyclo[3.2.1]octan-3-yl}-8-fluoro-7-(3-hydroxy-8-methylnaphthalen-1-yl)pyrido[4,3-d]pyrimidin-2-yl)oxy]ethyl}piperidin-4-yl)methoxy]-1,2-oxazol-5-yl}-3-methylbutanoyl]-4-hydroxy-N-[(1S)-1-[4-(4-methyl-1,3-thiazol-5-yl)phenyl]ethyl]pyrrolidine-2-carboxamide] displayed a Dmax of 60 to 80% and a DC50 of less than 600 nM.

`CCc1cccc2cc(O)cc(-c3ncc4c(N5CC6CCC(C5)N6)nc(OCCN5C[C@@H]6CN(c7cc([C@@H](C(=O)N8C[C@H](O)C[C@H]8C(=O)N[C@@H](C)c8ccc(-c9scnc9C)cc8)C(C)C)on7)C[C@H]6C5)nc4c3F)c12` (relative stereo) [Compound 78, (2S,4R)-1-[(2R*)-2-{3-[(3aR,6aR)-5-{2-[(4-{3,8-diazabicyclo[3.2.1]octan-3-yl}-7-(8-ethyl-3-hydroxynaphthalen-1-yl)-8-fluoropyrido[4,3-d]pyrimidin-2-yl)oxy]ethyl}-octahydropyrrolo[3,4-c]pyrrol-2-yl]-1,2-oxazol-5-yl}-3-methylbutanoyl]-4-hydroxy-N-[(1S)-1-[4-(4-methyl-1,3-thiazol-5-yl)phenyl]ethyl]pyrrolidine-2-carboxamide] gave a Dmax of 20 to 60% and a DC50 of 1000 to 3000 nM.

With `CCc1cccc2cc(O)cc(-c3ncc4c(N5CC6CCC(C5)N6)nc(OC[C@@]56CCCN5[C@H](COC(=O)N5CC7(C5)CN(c5cc([C@H](C(=O)N8C[C@H](O)C[C@H]8C(=O)N[C@@H](C)c8ccc(-c9scnc9C)cc8)C(C)C)on5)C7)CC6)nc4c3F)c12` [Compound 112, [(3S,7aS)-7a-{[(4-{3,8-diazabicyclo[3.2.1]octan-3-yl}-7-(8-ethyl-3-hydroxynaphthalen-1-yl)-8-fluoropyrido[4,3-d]pyrimidin-2-yl)oxy]methyl}-hexahydro-1H-pyrrolizin-3-yl]methyl 6-{5-[(2R)-1-[(2S,4R)-4-hydroxy-2-{[(1S)-1-[4-(4-methyl-1,3-thiazol-5-yl)phenyl]ethyl]carbamoyl}pyrrolidin-1-yl]-3-methyl-1-oxobutan-2-yl]-1,2-oxazol-3-yl}-2,6-diazaspiro[3.3]heptane-2-carboxylate], the Dmax was in the range of 80 to 100% and the DC50 was less than 600 nM.

As for `CCc1cccc2cc(O)cc(-c3ncc4c(N5CC6CCC(C5)N6)nc(OCCN5CCN(CC6CN(c7cc([C@@H](C(=O)N8C[C@H](O)C[C@H]8C(=O)N[C@@H](C)c8ccc(-c9scnc9C)cc8)C(C)C)on7)C6)CC5)nc4c3F)c12` [Compound 221, (2S,4R)-1-[(2S)-2-(3-{3-[(4-{2-[(4-{3,8-diazabicyclo[3.2.1]octan-3-yl}-7-(8-ethyl-3-hydroxynaphthalen-1-yl)-8-fluoropyrido[4,3-d]pyrimidin-2-yl)oxy]ethyl}piperazin-1-yl)methyl]azetidin-1-yl}-1,2-oxazol-5-yl)-3-methylbutanoyl]-4-hydroxy-N-[(1S)-1-[4-(4-methyl-1,3-thiazol-5-yl)phenyl]ethyl]pyrrolidine-2-carboxamide], the DC50 was greater than 3000 nM.

For `CCc1cccc2cc(O)cc(-c3ncc4c(N5CC6CCC(C5)N6)nc(OCCN5CCC(OC6CN(c7cc([C@@H](C(=O)N8C[C@H](O)C[C@H]8C(=O)N[C@@H](C)c8ccc(-c9scnc9C)cc8)C(C)C)on7)C6)CC5)nc4c3F)c12` [Compound 216, (2S,4R)-1-[(2S)-2-(3-{3-[(1-{2-[(4-{3,8-diazabicyclo[3.2.1]octan-3-yl}-7-(8-ethyl-3-hydroxynaphthalen-1-yl)-8-fluoropyrido[4,3-d]pyrimidin-2-yl)oxy]ethyl}piperidin-4-yl)oxy]azetidin-1-yl}-1,2-oxazol-5-yl)-3-methylbutanoyl]-4-hydroxy-N-[(1S)-1-[4-(4-methyl-1,3-thiazol-5-yl)phenyl]ethyl]pyrrolidine-2-carboxamide], the Dmax lay in the range of 20 to 60% and the DC50 was in the range of 1000 to 3000 nM.

In turn, `CCc1cccc2cc(O)cc(-c3ncc4c(N5CC6CCC(C5)N6)nc(OC[C@]56CCCN5[C@@H](COC(=O)NCc5cc([C@@H](C(=O)N7C[C@H](O)C[C@H]7C(=O)N[C@@H](C)c7ccc(-c8scnc8C)cc7)C(C)C)on5)CC6)nc4c3F)c12` [Compound 103, [(3R,7aR)-7a-{[(4-{3,8-diazabicyclo[3.2.1]octan-3-yl}-7-(8-ethyl-3-hydroxynaphthalen-1-yl)-8-fluoropyrido[4,3-d]pyrimidin-2-yl)oxy]methyl}-hexahydro-1H-pyrrolizin-3-yl]methyl N-({5-[(2S)-1-[(2S,4R)-4-hydroxy-2-{[(1S)-1-[4-(4-methyl-1,3-thiazol-5-yl)phenyl]ethyl]carbamoyl}pyrrolidin-1-yl]-3-methyl-1-oxobutan-2-yl]-1,2-oxazol-3-yl}methyl) carbamate] yielded a Dmax of 20 to 60% and a DC50 of 1000 to 3000 nM.

Consider `CCc1cccc2cc(O)cc(-c3ncc4c(N5CC6CCC(C5)N6)nc(OCCN5CCC(OC6CN(c7cc([C@H](C(=O)N8C[C@H](O)C[C@H]8C(=O)N[C@@H](C)c8ccc(-c9scnc9C)cc8)C(C)C)on7)C6)CC5)nc4c3F)c12` [Compound 215, (2S,4R)-1-[(2R)-2-(3-{3-[(1-{2-[(4-{3,8-diazabicyclo[3.2.1]octan-3-yl}-7-(8-ethyl-3-hydroxynaphthalen-1-yl)-8-fluoropyrido[4,3-d]pyrimidin-2-yl)oxy]ethyl}piperidin-4-yl)oxy]azetidin-1-yl}-1,2-oxazol-5-yl)-3-methylbutanoyl]-4-hydroxy-N-[(1S)-1-[4-(4-methyl-1,3-thiazol-5-yl)phenyl]ethyl]pyrrolidine-2-carboxamide], for which the Dmax was 80 to 100% and the DC50 is less than 600 nM.

Consider `CCc1cccc2cc(O)cc(-c3ncc4c(N5CC6CCC(C5)N6)nc(OCCN5CCC(CCC6CN(c7cc([C@H](C(=O)N8C[C@H](O)C[C@H]8C(=O)N[C@@H](C)c8ccc(-c9scnc9C)cc8)C(C)C)on7)C6)CC5)nc4c3F)c12` (single isomer, unassigned) [Compound 250, (2S,4R)-1-[(2R*)-2-(3-{3-[2-(1-{2-[(4-{3,8-diazabicyclo[3.2.1]octan-3-yl}-7-(8-ethyl-3-hydroxynaphthalen-1-yl)-8-fluoropyrido[4,3-d]pyrimidin-2-yl)oxy]ethyl}piperidin-4-yl)ethyl]azetidin-1-yl}-1,2-oxazol-5-yl)-3-methylbutanoyl]-4-hydroxy-N-[(1S)-1-[4-(4-methyl-1,3-thiazol-5-yl)phenyl]ethyl] pyrrolidine-2-carboxamide], for which the Dmax was in the range of 80 to 100% and the DC50 is less than 600 nM.

As for `CCc1cccc2cc(O)cc(-c3ncc4c(N5CC6CCC(C5)N6)nc(OCCN5CC(CC6CCN(c7cc([C@H](C(=O)N8C[C@H](O)C[C@H]8C(=O)N[C@@H](C)c8ccc(-c9scnc9C)cc8)C(C)C)on7)CC6)C5)nc4c3F)c12` [Compound 233], the Dmax was 80 to 100% and the DC50 is less than 600 nM.

The compound `C#Cc1c(F)ccc2cc(O)cc(-c3ncc4c(N5CC6CCC(C5)N6)nc(OCCN5CCC(COc6cc([C@@H](C(=O)N7C[C@H](O)C[C@H]7C(=O)N[C@@H](C)c7ccc(-c8ccnn8C)cc7)C(C)C)on6)CC5)nc4c3F)c12` (relative stereo) [Compound 86, (2S,4R)-1-[(2R*)-2-{3-[(1-{2-[(4-{3,8-diazabicyclo[3.2.1]octan-3-yl}-7-(8-ethynyl-7-fluoro-3-hydroxynaphthalen-1-yl)-8-fluoropyrido[4,3-d]pyrimidin-2-yl)oxy]ethyl}piperidin-4-yl)methoxy]-1,2-oxazol-5-yl}-3-methylbutanoyl]-4-hydroxy-N-[(1S)-1-[4-(1-methyl-1H-pyrazol-5-yl)phenyl]ethyl]pyrrolidine-2-carboxamide] returned a Dmax of 80 to 100% and a DC50 of 1000 to 3000 nM.

In the case of `CCc1cccc2cc(O)cc(-c3ncc4c(N5CCCCCC5)nc(OC[C@]56CCCN5[C@H](COC(=O)N5CCC(Oc7cc([C@H](C(=O)N8C[C@H](O)C[C@H]8C(=O)N[C@@H](C)c8ccc(-c9scnc9C)cc8)C(C)C)on7)CC5)CC6)nc4c3F)c12` [Compound 286, [(3S,8R)-8-[[4-(azepan-1-yl)-7-(8-ethyl-3-hydroxy-1-naphthyl)-8-fluoro-pyrido[4,3-d]pyrimidin-2-yl]oxymethyl]-1,2,3,5,6,7-hexahydropyrrolizin-3-yl]methyl 4-[5-[(1R)-1-[(2S,4R)-4-hydroxy-2-[[(1S)-1-[4-(4-methylthiazol-5-yl)phenyl]ethyl]carbamoyl]pyrrolidine-1-carbonyl]-2-methyl-propyl]isoxazol-3-yl]oxypiperidine-1-carboxylate], the Dmax is 80 to 100% and the DC50 was less than 600 nM.

Take `Cc1ncsc1-c1ccc([C@H](C)NC(=O)[C@@H]2C[C@@H](O)CN2C(=O)[C@@H](c2cc(N3CCN(C(=O)OC[C@@H]4CC[C@@]5(COc6nc(N7CC8CCC(C7)N8)c7cnc(-c8cc(O)cc(Cl)c8C8CC8)c(F)c7n6)CCCN45)CC3)no2)C(C)C)cc1` (relative stereo) [Compound 258, [(3S,8R)-8-[[7-(3-chloro-2-cyclopropyl-5-hydroxy-phenyl)-4-(3,8-diazabicyclo[3.2.1]octan-3-yl)-8-fluoro-pyrido[4,3-d]pyrimidin-2-yl]oxymethyl]-1,2,3,5,6,7-hexahydropyrrolizin-3-yl]methyl 4-[5-[(1R)-1-[(2S,4R)-4-hydroxy-2-[[(1S)-1-[4-(4-methylthiazol-5-yl)phenyl]ethyl]carbamoyl]pyrrolidine-1-carbonyl]-2-methyl-propyl]isoxazol-3-yl]piperazine-1-carboxylate]: the Dmax lay in the range of 80 to 100% and the DC50 is less than 600 nM.

The values are drawn from patent publication US20250206732A1, “COMPOUNDS AND METHODS FOR THE TARGETED DEGRADATION OF KRAS” (Arvinas Operations, Inc., priority 2022, published 2025).
